Some results are limits rather than exact numbers.

The record followed here is patent publication EP0549002A1, “Method for the preparation of an antiseptic composition containing clindamycin-hydrochloride and polymyxin” (priority 1991, dated 1993).

The nature of data set [1]: Acute toxicity (general statement). It counts as in vivo. Particulars: in combination with Clindamycin; mammals and humans.
Data set [2] has as its system Mycoplasma hyorhinis type strain BTS-7. The experiment in a line: MIC by serial broth dilution method (Friis broth, glucose metabolism colour change). The format is cell-based. Particulars: single agent; read at day 5; 37°C aerobic. On the procedure:
Friis-broth was added to each well.

Data set [3] relates to Pasteurella haemolytica 3R188 and 6R132. Nature of the data set: MIC by plate dilution method (horseblood-agar). It counts as cell-based. Particulars: both P. haemolytica isolates; single agent; observed during 24 hours. Here is the method:
Two clinical isolates of Pasteurella haemolytica were studied. The bacteria were isolated from calves and identified. The isolates included P. haemolytica 3R188 and 6R132.
The strength of the inoculating suspension was 2 MacFarland. The plates were observed during 24 hours after incubation.

In the case of Polymyxin E (Colistin), the acute toxicity result in data set [1] is given as “strikingly reduced”. In data set [2], this substance registered an MIC greater than 50 µg/mL. Further, in data set [3], the “minimal inhibitory concentrations (MICs)” value was 1,6 µg/ml.
